Experiment: gradient 5% acetonitrile 3 min, to 50% in 2 min, to 85% in 15 min, held 3 min, 100 µL/min
Conditions: column: Zorbax Extend-C18 2.1 x 50 mm; eluents: water / acetonitrile, 0.1% formic acid
Procedure, shortened: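 Retention times come from adduct peaks that were picked computationally and then checked by hand. The standards, pure and pooled in mixtures of ~100 molecules, were run on a Zorbax Extend-C18 column (2.1 × 50 mm, 1.8 μm) at 100 μL/min with water and acetonitrile, each with 0.1% formic acid. Detection was by quadrupole time-of-flight mass spectrometry in positive and negative ionization mode, with a dead volume of 40 μL and a dwell volume of 900 μL.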

RP-LC retention time | Structure (SMILES)
830 s | CN(C)C(=O)c1ccc2c(c1)N(CC(=O)NCCC1=CCCCC1)C(=O)C1CCCCN21 (centres undefined)
791 s | O=C(c1ccc2c(c1)OCO2)N1CCN(c2ccc(=O)n(-c3ccc(Cl)cc3)n2)CC1
703 s | O=C(NCc1ccc2c(c1)OCO2)C1CCCN(C(=O)C2Sc3ccccc3NC2=O)C1 (centres undefined)
1050 s | COc1ccc(N2CC(c3nc(-c4ccc(C)cc4)no3)CC2=O)cc1Cl (centres undefined)
1070 s | Cc1cc(C)cc(NC(=O)CN2C(=O)C(C(=O)N3CCCC3)Sc3ccccc32)c1 (centres undefined)
619 s | CN1CCC2(CC1)CN(C(=O)C1CCC1)Cc1ccccc1O2
671 s | Cc1cc(C)c2c(N3CCCC3)nc(C(=O)Nc3ccccc3C)nc2n1
657 s | COc1ccc(-c2cnn3c(C)cc(C)nc23)cc1S(=O)(=O)NCCN1CCCC(C)C1 (centres undefined)
944 s | CCc1ccc(C2=C(C)C(N3CCC(C(=O)NCc4ccc(C)o4)CC3)=NS2(=O)=O)cc1
749 s | CCOc1ccc(-c2noc(N3CCC(C(=O)NCC4CCCO4)CC3)n2)cc1OC (centres undefined)
650 s | Cc1noc([C@@H]2CN(C(=O)CCc3nc4ccccc4s3)C[C@H]2C(N)=O)n1
809 s | Cc1oc(-c2[nH]ncc2C(=O)N2CCCCC2)cc1S(=O)(=O)N1CCC(C)CC1
740 s | Cc1ccc(NC(=O)N2CCC(n3c(-c4ccoc4)nc4cccnc43)C2)cc1 (centres undefined)
995 s | COC(=O)c1ccc2c(=O)n(CCc3ccccc3)c(N3CCOCC3)nc2c1
733 s | CCNc1nc(C)cc(N2CCN(S(=O)(=O)c3ccc(-c4csc(C)n4)s3)CC2)n1
992 s | Cc1ccc2c(c1)N(Cc1nc(C3CC3)no1)N=C(C(=O)N1CCC(C)CC1)S2(=O)=O
806 s | COCCNC(=O)NC1CCN(c2nc3cccnc3n(Cc3ccccc3)c2=O)CC1
698 s | Cc1cccc(Cl)c1NC(=O)CSc1ccc(N2CCCC(C(=O)NC3CC3)C2)nn1 (centres undefined)
1110 s | Cc1nc(-n2cccc2)sc1C(=O)N1CC(c2nc(-c3cccc(Cl)c3)no2)C1
586 s | Cc1ccc(CNC(=O)C2CCN(C(=O)c3cc(-c4cccnc4)n[nH]3)CC2)o1
900 s | CCOCC1CCC2(CCN(C(=O)Cn3c(=O)oc4cc(Cl)ccc43)CC2)O1 (centres undefined)
746 s | CCN1CCCC1CNS(=O)(=O)c1ccccc1-c1nc(-c2ccc(C)cc2)no1 (centres undefined)
643 s | CN(C)c1ncncc1N1CCC(C(=O)NCc2ccc(Cl)cc2)CC1
584 s | Cc1cc(C(=O)N2CCCn3ccnc3C2C2CCCC2)n[nH]1 (centres undefined)
623 s | Cc1ccc2cc(CCC(=O)NCCCN3CCCC3=O)c(=O)[nH]c2c1
1000 s | O=C(CN1C(=O)COc2ccccc21)N1CCN(c2ccc(-c3noc(C4CCC4)n3)cc2)CC1
612 s | CCN1CCN(C(=O)CC2CCN(C(=O)c3[nH]c(C)c(C(=O)OC(C)C)c3C)CC2)CC1
667 s | COc1ccc(-c2nc3cccnc3n2C2CCN(C(=O)NC(C)C)C2)cc1 (centres undefined)
752 s | Cc1scc2nc(C3CCC3)nc(N3CCC(C(=O)NC4CCCCC4)CC3)c12
633 s | CCCCN1CCN(S(=O)(=O)c2cc(-c3nnc(C4CC4)o3)co2)CC1

Further lines, the molecule ahead of its results:

Structure (SMILES) | RP-LC retention time
COc1ccc(OC)c(CNC(=O)c2nc(N3CCOCC3)c3ccccc3n2)c1 | 686 s
O=C(Cn1c(=O)c2cc(-c3ccco3)nn2c2ncccc21)Nc1ccc(F)cc1 | 814 s
Cc1nc(-c2cccc(NC(=O)c3ncccn3)c2)cs1 | 665 s
Cc1ccccc1-c1cc2c(=O)n(Cc3nc(-c4ccccc4)no3)ccn2n1 | 1050 s
CN(C)CCOc1ccc(I)cc1Cc1ccccc1 | 739 s
CCc1nnc(-c2cc(S(=O)(=O)NCCc3ccc(S(N)(=O)=O)cc3)cn2C)o1 | 676 s
COc1ccc2c(c1)c(CC(=O)O)c(C)n2Cc1ccc(Cl)cc1 | 1060 s
CCCOc1nc2ccccc2nc1N1CCCC(C(=O)Nc2cccc(CC)c2)C1 (centres undefined) | 1260 s
Cc1ccc(N(C)S(=O)(=O)c2ccc3c(c2)CCCC(=O)N3)cc1C | 854 s
O=C(NC1(c2nc(-c3cccnc3)no2)CCCCC1)c1n[nH]c2c1CCCC2 | 854 s
CCCCN1C(=O)C(C)(C(=O)Nc2cc(C)ccc2C)Oc2cccnc21 (centres undefined) | 1110 s
COCCNC(=O)Cn1c(=O)n(-c2ccc(C)cc2)c2ncccc21 | 656 s
CCNc1cc(N2CCC(CCC(=O)NCc3ccc(F)c(Cl)c3)CC2)ncn1 | 682 s
O=C(NCCN1CCCCC1)C1CN(S(=O)(=O)c2cccnc2)CC12CCCCC2 (centres undefined) | 613 s
CS(=O)(=O)N1CCC(C(=O)NCC(O)c2ccc(C(F)(F)F)cc2)CC1 (centres undefined) | 652 s
Cn1nc(C(=O)Nc2ccc3c(c2)C(=O)N2CCC[C@H]2C(=O)N3)c2ccccc21 | 714 s
COc1ccc2c(CCNC(=O)c3ccccc3OC)c[nH]c2c1 | 788 s
COCCCNC(=O)Cn1c(=O)c(S(=O)(=O)c2ccccc2)cc2ccccc21 | 705 s
COc1ccc(-c2nc3ccc(Br)cn3c2Nc2ccc(C)cc2)cc1 | 847 s
COC(=O)c1c(NCCC(C)C)c2cc(F)ccc2[nH]c1=O | 792 s

Structure (SMILES) | RP-LC retention time
O=c1c2nnc3ccnn3c2ccn1CCc1c[nH]c2ccccc12 | 700 s
CS(=O)(=O)N1CCCC(C(=O)Nc2nccs2)C1 (centres undefined) | 627 s
Cn1nc(CNC(=O)C2(c3ccccc3)CC2)c2c1CCN(S(C)(=O)=O)C2 | 694 s
Cc1nn(-c2ccccc2)c2sc(C(=O)NC(C)C)cc12 | 966 s
COCCCNC(=O)C1c2ccccc2C(=O)N1Cc1ccccc1C (centres undefined) | 753 s
O=C(Cc1nnc(-c2ccccc2)o1)NCc1ccncc1 | 566 s
COC(=O)Cn1c(C2CC(=O)N(Cc3ccccc3)C2)nc2ccccc21 (centres undefined) | 770 s
Cc1nc2scc(CC(=O)O)n2c(=O)c1C | 592 s
Cc1nnc2cc(N3CCN(S(=O)(=O)c4ccc(F)cc4)CC3)cnn12 | 670 s
O=c1ccn(-c2cccc(F)c2)nc1-c1nc(-c2cccc(F)c2)no1 | 906 s
Cc1cc(N2CCN(c3ccccn3)CC2)n2ncc(-c3ccccc3Cl)c2n1 | 732 s
Fc1cccc(-c2nc3ncccn3c2NC2CCCCC2)c1 | 834 s
COc1ccc(CNC(=O)Cn2c(C(F)(F)F)nc3cc4c(cc32)OCCO4)cc1 | 813 s
CCCN1C(=O)COc2ccc(-c3noc(COc4ccc(Cl)cc4)n3)cc21 | 1190 s
COc1ccc(-c2c(C)noc2NC(C)=O)cc1S(=O)(=O)Nc1ccccc1F | 783 s
CC[C@H](NC(=O)c1c(C)c(-c2ccccc2)nc2ccccc12)c1ccccc1 | 1060 s
CCC(C)N(CC(=O)N1CCc2sccc2C1COc1cccc(F)c1)C(C)=O (centres undefined) | 754 s
Cc1ccc(CNc2c(-c3ccc(F)cc3)nc3ncccn23)cc1 | 789 s
CCc1ccc(CNC(=O)c2cn(-c3cc(-c4nc(C)no4)ccn3)cn2)cc1 | 805 s
COc1ccc(C(=O)N2CCCC2c2nc(-c3ccc(OC)c(OC)c3)no2)c(OC)c1 (centres undefined) | 866 s

Structure (SMILES) | RP-LC retention time
CCOc1ccc(C(=O)Nc2ccc3c(c2)Sc2ncccc2C(=O)N3C(C)C)cc1 | 972 s
CCOc1ccc(-c2csc3c(=O)n(CC(C)C)cnc23)cc1OCC | 1100 s
CN(C)CCCNc1oc(-c2ccccc2)nc1S(=O)(=O)c1ccc(F)cc1 | 692 s
COC[C@@H]1CN(c2cnccn2)C[C@H]1C(=O)NCc1cc(C)nn1C | 563 s
O=C(C1CCCN(c2nnc3ccc(Cl)cn23)C1)N1CCN(C2CCCCC2)CC1 (centres undefined) | 525 s
Cc1nn(-c2ccccc2)c2nc(N3CCCC(C(=O)NCc4ccc(F)cc4)C3)sc12 (centres undefined) | 806 s
Cc1nn(-c2ccc(-c3ccccc3)nn2)c(C)c1S(=O)(=O)Nc1ccc2c(c1)OCCO2 | 978 s
Cc1ccc2nc(C(=O)NCc3ccccc3C)cn2c1 | 686 s
CC(=O)c1cccc(NC(=O)c2nc(N(C)C)c3c(C)cc(C)nc3n2)c1 | 564 s
O=C(NCCN1CCCC1)c1nc2ccccn2c1-c1ccc(F)cc1 | 611 s
CCOCC(=O)N1CCC2(CC1)CC(O)(CC)CCO2 (centres undefined) | 614 s
O=C(CSc1ccncc1)NCc1cc(-c2ccco2)on1 | 552 s
Cc1ccc(-c2cc3c4nnc(SCC(=O)NCCc5ccccc5)n4ccn3n2)cc1C | 954 s
Cc1nc(-c2ccccc2)nn1C1CCN(S(=O)(=O)c2ccc(Cl)s2)C1 (centres undefined) | 902 s
COc1cccc(NC(=O)Nc2ccc(-c3cn4ccc(C)nc4n3)cc2)c1 | 639 s
Cn1c(CCNC(=O)c2ccc(Cl)s2)nc2cccnc21 | 626 s
O=S(=O)(c1ccc2nc(N3CCN(C4CCCCC4)CC3)ccc2c1)N1CCCCC1 | 734 s
COc1ccc(-c2nc(-c3ccc4c(c3)oc(=O)n4C)no2)c(C)c1 | 1100 s
COCC(=O)N[C@@H]1CN(C(=O)C2CC=CC2)CC[C@@H]1CO | 578 s

— the METLIN SMRT retention time set (Domingo-Almenara et al. 2019)
